Data as given in the NIST ThermoML archive (doi:10.1016/j.jct.2016.03.029).

Experiments:
[1] = xn = mol fraction of the nth substance listed; conditions: 100 kPa, Liquid; for speed of sound: Frequency=3 MHz, Sing-around technique in a fixed-path interferometer; for mass density: Vibrating tube method
[2] = refractive index (Na D-line) (dimensionless); xn = mol fraction of the nth substance listed; conditions: 100 kPa, Liquid, Standard Abbe refractometry

CCCC[n+]1ccn(C)c1.O=S(=O)([N-]S(=O)(=O)C(F)(F)F)C(F)(F)F + CN1CCCC1=O
Conditions	mass density, [1] [kg/m3]	refractive index, [2]	speed of sound, [1] [m/s]
298.15 K, x1 = 0.1051	1135.14	1.45767	1448.1
298.15 K, x1 = 0.2088	1209.84	1.45014	1385.2
298.15 K, x1 = 0.2926	1255.56	1.44539	1347.3
298.15 K, x1 = 0.3807	1293.95	1.44129	1317
298.15 K, x1 = 0.5019	1335.52	1.4368	1287.5
298.15 K, x1 = 0.5925	1360.41	1.43414	1271
298.15 K, x1 = 0.6982	1384.58	1.43169	1255.8
298.15 K, x1 = 0.7862	1401.58	1.42999	1245.6
298.15 K, x1 = 0.8895	1418.59	1.4283	1236.2
298.15 K, x1 = 1	1433.72	1.42671	1227.9
303.15 K, x1 = 0.1051	1130.6	1.45571	1430.8
303.15 K, x1 = 0.2088	1205.24	1.4483	1369.4
303.15 K, x1 = 0.2926	1250.89	1.44359	1332.5
303.15 K, x1 = 0.3807	1289.25	1.43954	1303.1
303.15 K, x1 = 0.5019	1330.79	1.4351	1274.3
303.15 K, x1 = 0.5925	1355.69	1.43244	1258.2
303.15 K, x1 = 0.6982	1379.86	1.43006	1243.5
303.15 K, x1 = 0.7862	1396.85	1.42842	1233.5
303.15 K, x1 = 0.8895	1413.85	1.42678	1224.4
303.15 K, x1 = 1	1428.92	1.42522	1216.8
308.15 K, x1 = 0.1051	1126.04	1.45375	1413.4
308.15 K, x1 = 0.2088	1200.63	1.44645	1353.5
308.15 K, x1 = 0.2926	1246.22	1.44178	1317.8
308.15 K, x1 = 0.3807	1284.55	1.43777	1289.2
308.15 K, x1 = 0.5019	1326.08	1.43337	1261.2
308.15 K, x1 = 0.5925	1350.96	1.43074	1245.5
308.15 K, x1 = 0.6982	1375.14	1.42842	1231.1
308.15 K, x1 = 0.7862	1392.14	1.42683	1221.5
308.15 K, x1 = 0.8895	1409.13	1.42524	1212.7
308.15 K, x1 = 1	1424.13	1.42373	1205.8
313.15 K, x1 = 0.1051	1121.51	1.45177	1396.4
313.15 K, x1 = 0.2088	1196.02	1.44455	1337.9
313.15 K, x1 = 0.2926	1241.59	1.43994	1303.1
313.15 K, x1 = 0.3807	1279.89	1.43596	1275.6
313.15 K, x1 = 0.5019	1321.38	1.43161	1248.3
313.15 K, x1 = 0.5925	1346.26	1.42904	1232.9
313.15 K, x1 = 0.6982	1370.44	1.42676	1218.9
313.15 K, x1 = 0.7862	1387.44	1.42522	1209.5
313.15 K, x1 = 0.8895	1404.42	1.42368	1201.2
313.15 K, x1 = 1	1419.36	1.42225	1195
318.15 K, x1 = 0.1051	1116.95	1.44978	1379.1
318.15 K, x1 = 0.2088	1191.41	1.44265	1322.3
318.15 K, x1 = 0.2926	1236.95	1.43809	1288.7
318.15 K, x1 = 0.3807	1275.22	1.43414	1262.1
318.15 K, x1 = 0.5019	1316.7	1.42983	1235.4
318.15 K, x1 = 0.5925	1341.57	1.42733	1220.3
318.15 K, x1 = 0.6982	1365.75	1.42509	1206.6
318.15 K, x1 = 0.7862	1382.75	1.42359	1197.5
318.15 K, x1 = 0.8895	1399.75	1.4221	1189.5
318.15 K, x1 = 1	1414.61	1.42076	1184.2
323.15 K, x1 = 0.1051	1112.42	1.44778	1361.8
323.15 K, x1 = 0.2088	1186.82	1.4407	1306.6
323.15 K, x1 = 0.2926	1232.32	1.43621	1274.3
323.15 K, x1 = 0.3807	1270.56	1.43228	1248.4
323.15 K, x1 = 0.5019	1312.04	1.42802	1222.5
323.15 K, x1 = 0.5925	1336.92	1.42562	1207.8
323.15 K, x1 = 0.6982	1361.1	1.42341	1194.4
323.15 K, x1 = 0.7862	1378.1	1.42193	1185.6
323.15 K, x1 = 0.8895	1395.1	1.42051	1177.9
323.15 K, x1 = 1	1409.88	1.41923	1173.6
